# Test system: P. falciparum 3D7 growth, pLDH absorbance
# Assay: P. falciparum 3D7 growth inhibition, dose response, strain 3D7 (AID 2305)
row,Compound,IC50 [nM]
1,O=C(Cn1c(=O)cnc2ccccc21)Nc1cccc(C(=O)Nc2cccc(C(F)(F)F)c2)c1,280
2,CCCc1cc(C(=O)N[C@@H](Cc2ccccc2)[C@H](O)CNC2CCOCC2)c(F)c(N2CCCCS2(=O)=O)c1,170
3,CSc1cccc(NC(=O)Nc2ccc(I)c(OCCN(C)C)c2)c1,690
4,Cc1ccc(C(=O)Cn2nc(-c3ccc(C)c(S(=O)(=O)N4CCCC4)c3)ccc2=O)cc1,510
5,Cc1cc(NC(=O)c2ccco2)ccc1OC1CCN(Cc2ccc(F)cc2)C1 (stereo not given),640
6,COc1ccc2nc(C)cc(Nc3ccc(Oc4ccc5ccccc5c4Cl)c(Cl)c3)c2c1,500
7,Cc1ccc(N2CCN(C(=O)c3cccc(-c4cncc5nc(-c6ccco6)n(C)c45)c3)CC2)nc1,600
8,CCCC1N=C(N)N=C(N)N1c1ccc(Cl)cc1 (stereo not given),50
9,CCCCCCCC1CC(CC(=O)Nc2ccnc3ccc(OC)cc23)CN1 (stereo not given),510
10,CC(C)NCc1ccc(-c2ccc(-c3nc4ccc(C(F)(F)F)cc4[nH]3)cc2)cc1,270
11,NC1=NC2(CCCCC2)N(OCC2CCCCC2)C(N)=N1,150
12,Cc1[nH]c2cc(F)ccc2c1C1=CCN(CCCCC2(C)C(=O)Nc3c(F)cccc32)CC1 (stereo not given),400
13,CC(C)C(C(=O)Nc1ccc2c(c1)OCO2)c1ccc(Cl)cc1 (stereo not given),720
14,Fc1cccc(-c2ccc3c(c2)CC(NCc2c[nH]c4cnccc24)C3)c1 (stereo not given),480
15,O=C(Nc1cccc(-c2cccc(-c3nc4ccc(C(F)(F)F)cc4[nH]3)c2)c1)Nc1ccc(F)c(F)c1F,120
16,Cc1cccc2[nH]c(-c3ccc(-c4cccc(NC(=O)Nc5ccsc5)c4)s3)nc12,540
17,Nc1ncc(-c2ccsc2)cc1-c1nc2ccccc2[nH]1,850
18,CN1CCC(Oc2cc(NC(=O)Nc3ccc(-c4ccncc4)c(C(F)(F)F)c3)ccc2Cl)CC1,780
19,CN1CCN(CCCN(Cc2ccc(-c3cccc(CNC4CCCC4)c3)cc2)C(=O)Nc2ccccc2)CC1,1120
20,CCCCCc1cc(OC(=O)CCCN(CC)CC)c2c(c1)OC(C)(C)C=C2C1=CCN(Cc2ccc3ccccc3c2)CC1,160
21,Cc1nc(-c2ccncc2)sc1C(=O)Nc1ccc(Cl)cc1C(=O)Nc1ccc(Cl)cc1,760
22,CC(C)CN1CCCN(Cc2cccc(NC(=O)c3ccc(Cl)c(Cl)c3)c2)CC1,890
23,Cc1cc(CN2CCC(N3CC(c4ccccc4)(c4ccccc4)OC3=O)C2)ccc1O (stereo not given),780
24,COC(=O)c1ccc(CC(C)NCC(O)c2ccccc2Cl)cc1 (stereo not given),1010
25,Cc1ccc(CNC(=O)[C@H](Cc2ccccc2)Nc2cc(C)nc(NCCc3ccc(F)cc3)n2)cc1,980

row,Compound,IC50 [nM]
1,NC(N)=NC(=O)Nc1ccc(Cl)c(C(F)(F)F)c1,590
2,O=C(Nc1n[nH]c2nc(-c3ccco3)c(Br)cc12)c1ccc(CN2CCCC2)cc1,790
3,O=c1cc(NCCCNC2CCc3ccc(Cl)cc32)[nH]c2ccccc12 (stereo not given),860
4,N#Cc1ccc(NC(=O)c2ccc(Cc3ccc4c(c3)CCN(C3CCC3)CC4)cn2)cc1,1120
5,COc1ccc(-n2cc(C(=O)c3cc(Br)ccc3O)cc(C#N)c2=O)cc1Cl,790
6,COc1cccc(OC)c1-c1ccccc1NC(=O)N1CCCc2cc(C)ccc21,820
7,COc1ccccc1-c1nc2nc(N)nc(N)c2nc1-c1ccccc1OC,1250
8,COc1ccc2nc(C)cc(NN=Cc3ccc([N+](=O)[O-])cc3)c2c1,690
9,CC(C)(C)OC(=O)NCc1ccc(Nc2nnc(-c3ccc(OCC(=O)NCc4cc(C(F)(F)F)cc(C(F)(F)F)c4)c([N+](=O)[O-])c3)o2)cc1,460
10,CCCCCCCNCCNc1cc(C)nc2ccccc12,390
11,Cc1cc(N(CCN2CCCCC2)CCN2CCCCC2)nc(Nc2ccc(Cl)cc2)n1,270
12,CCNc1cc(C(=O)N[C@@H](Cc2ccc(F)c(F)c2)[C@H](O)CNCc2cccc(OC)c2)cc(N2CCCCS2(=O)=O)c1,750
13,O=[N+]([O-])c1ccc(C=NO)nc1,870
14,O=S(=O)(Nc1ccc(CCN2CCC(N3CCCCC3)CC2)cc1)c1cccc(C(F)(F)F)c1,700
15,CC1(C)N=C(N)N=C(N)N1c1ccc2ccccc2c1,50
16,O=C(Nc1cccc(-c2csc(NC(=O)c3ccc4ccccc4c3)n2)c1)c1ccc2ccccc2c1,710
17,CN1CCC(NCc2ccc(-c3ccc(S(=O)(=O)NCc4ccccc4)cc3)cc2)CC1,830
18,COc1ccc(Cl)cc1NC(=O)C(C)Nc1ccc(-c2ccccc2)cc1 (stereo not given),560
19,CC1(C)N=C(N)N=C(N)N1OCc1cc(Cl)c(CON2C(N)=NC(N)=NC2(C)C)cc1Cl,40
20,Clc1ccc(CNc2ccnc(NCCc3coc4ccccc34)n2)c(Cl)c1,1170
21,OCC1CCN(Cc2cccc(-c3ccc(-c4nc5ccc(C(F)(F)F)cc5[nH]4)cc3)c2)CC1,660
22,CS(=O)(=O)c1ccc(CCNCc2ccc(-c3ccc(CN(C(=O)C4CC(=O)c5ccccc54)C4Cc5ccccc5C4)cc3)nc2)cc1 (stereo not given),860
23,CC(C(=O)Nc1ccc(Br)cc1Br)N1CCN(C(=O)c2ccco2)CC1 (stereo not given),750
24,CNc1nc(Nc2ccccc2C)nc2ccccc12,440
25,COc1cccc(CNC(=O)NC2CCN(c3ccnc(Nc4cc(OC)c(OC)c(OC)c4)n3)C2)c1 (stereo not given),710

# Source: PubChem BioAssay AID2305 (GlaxoSmithKline (GSK), 2010)
